Test results reported in ChEMBL document CHEMBL3046307, “Synthesis and evaluation of 1-benzhydryl-sulfonyl-piperazine derivatives as inhibitors of MDA-MB-231 human breast cancer cell proliferation” (2007).

system: MDA-MB-231; assay: Cytotoxicity against Homo sapiens (human) MDA-MB-231 cells assessed as inhibition of cell proliferation at 2 mM after 72 hr by MTS assay relative to control; assay type: functional; details: MDA-MB-231, 72 h

`Cc1noc(C)c1S(=O)(=O)N1CCN(C(c2ccccc2)c2ccccc2)CC1` was tested. Which inhibition at 2000 µM did it give?
Its inhibition at 2000 µM is 20.6%.

Which inhibition at 2000 µM does the source give for `O=S(=O)(c1ccc(Cl)cc1)N1CCN(C(c2ccccc2)c2ccccc2)CC1` here?
The inhibition at 2000 µM was 1%.

With `CC(C)(C)c1ccc(S(=O)(=O)N2CCN(C(c3ccccc3)c3ccccc3)CC2)cc1` as the compound, how does the inhibition at 2000 µM read?
The inhibition at 2000 µM was 28.6%.

With `CS(=O)(=O)N1CCN(C(c2ccccc2)c2ccccc2)CC1` as the compound, how does the inhibition at 2000 µM read?
Its inhibition at 2000 µM is 3.79%.

For `Cc1ccc(S(=O)(=O)N2CCN(C(c3ccccc3)c3ccccc3)CC2)cc1`, which inhibition at 2000 µM is on record?
Its inhibition at 2000 µM is 10%.
